Measurements reported in paper PMC5433008 (BMC Neuroscience, 2017).
Where no end group is shown, it is not given here.

Assays:
[1] = tested on: NMDA-evoked currents in cultured rat embryonic hippocampal neurons (NMDAr)
NMDA/GluN2B = conditions: Ro 25-6981 1 µM; ref [40]; cited from earlier work
[2] = tested on: voltage-dependent Na^+ channels; conditions: 1 µM; ref [40]; cited from earlier work
[3] = tested on: voltage-dependent Ca^+2 channels; conditions: 1 µM; ref [40]; cited from earlier work
[4] = tested on: NMDA-evoked currents in hippocampal neurons; conditions: cited from earlier work
[5] = tested on: NMDA-evoked currents in cortical neurons; conditions: cited from earlier work
GluN1a–GluN2B = conditions: cited from earlier work
[6] = tested on: NMDAr containing the GluN2B subunit; conditions: cited from earlier work

Molecule | block of NMDA-evoked currents [1] | reversibility of block [1] | use-dependence of block [1] | block of NMDA-evoked currents, percent (GluN2B blocker) [1] [%] | 1 µM relative to the concentration producing 50% inhibition of NMDA/GluN2B-mediated currents (NMDA/GluN2B) [fold] | effect on voltage-dependent Na^+ channels [2] | effect on voltage-dependent Ca^+2 channels [3] | IC50 [4] [nM] | IC50 [5] [nM] | recovery of NMDA-evoked current after washout [5] | reversibility [5] | IC50 (GluN1a–GluN2B) [nM] | recovery of NMDA-evoked currents after washout (GluN1a–GluN2B) | selectivity for NMDAr containing the GluN2B subunit [6]
C[C@]12N[C@H](Cc3ccccc31)c1ccccc12 [(+)MK-801, Dizocilpine] | blocked the NMDA-evoked currents | irreversible | increased with exposures to the blocker |  |  |  |  |  |  |  |  |  |  | 
C[C@@H](CN1CCC(Cc2ccccc2)CC1)[C@@H](O)c1ccc(O)cc1 [Ro 25-6981] |  | no reversibility following 4 min of washout | use-dependent | 70 | 100 | minimal or no effects | minimal or no effects |  |  |  |  |  |  | 
conantokin-G: 17 amino acid peptide (MW 2264.2 Da), cone snail toxin selective for NMDAr containing GluN2B (GEEELQENQELIREKSN; ends and bridges not checked; UniProt P07231 81-97, looked up) |  |  |  |  |  |  |  | 480 | 480 | about 10% | very slow and incomplete reversibility | 100 | about 80% | selective for NMDAr containing the GluN2B subunit
